For 39 compounds, IC50 results are on record in ChEMBL document CHEMBL3882729, “Receptor-type kinase modulators and methods of use” (2009).

In one experiment the target is T1, Ephrin type-B receptor 4 (Homo sapiens, UniProt P54760).
T1 sequence (P54760 whole entry): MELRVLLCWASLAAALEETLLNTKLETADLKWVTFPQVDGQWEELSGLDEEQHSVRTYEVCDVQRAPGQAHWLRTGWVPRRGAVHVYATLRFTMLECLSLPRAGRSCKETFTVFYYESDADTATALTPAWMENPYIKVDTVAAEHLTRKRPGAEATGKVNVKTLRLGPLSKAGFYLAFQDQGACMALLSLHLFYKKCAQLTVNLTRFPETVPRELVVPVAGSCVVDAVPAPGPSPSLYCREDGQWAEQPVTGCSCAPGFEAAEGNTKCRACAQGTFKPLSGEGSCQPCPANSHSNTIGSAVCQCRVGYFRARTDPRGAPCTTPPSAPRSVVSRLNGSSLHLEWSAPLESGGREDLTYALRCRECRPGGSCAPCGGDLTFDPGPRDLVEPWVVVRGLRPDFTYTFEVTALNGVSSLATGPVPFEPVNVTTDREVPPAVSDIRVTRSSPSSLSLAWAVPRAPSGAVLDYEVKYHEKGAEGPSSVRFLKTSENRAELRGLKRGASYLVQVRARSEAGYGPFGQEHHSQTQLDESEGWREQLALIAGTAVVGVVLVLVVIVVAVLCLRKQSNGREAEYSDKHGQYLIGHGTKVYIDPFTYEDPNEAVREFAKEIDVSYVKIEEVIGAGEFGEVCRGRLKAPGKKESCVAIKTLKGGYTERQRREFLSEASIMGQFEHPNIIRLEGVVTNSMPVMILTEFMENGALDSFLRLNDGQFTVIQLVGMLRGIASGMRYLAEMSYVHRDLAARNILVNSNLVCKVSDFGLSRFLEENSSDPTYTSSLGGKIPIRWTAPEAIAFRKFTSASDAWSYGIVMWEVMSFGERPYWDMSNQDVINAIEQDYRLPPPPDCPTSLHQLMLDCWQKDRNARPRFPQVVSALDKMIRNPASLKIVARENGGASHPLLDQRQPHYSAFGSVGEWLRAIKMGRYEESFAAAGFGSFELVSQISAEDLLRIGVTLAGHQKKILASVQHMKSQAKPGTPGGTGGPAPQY
Description: Inhibition of recombinant human N-terminal His6-tagged EphB4 kinase domain (E605 to E890 residues) expressed in baculovirus using poly-AEKY as substrate after 150 mins in presence of gamma33P-ATP by liquid scintillation spectrometry.

For another experiment, the target named is Ephrin type-A receptor 2 (Homo sapiens, UniProt P29317). The experiment in a line: Inhibition of recombinant human N-terminal His6-tagged EphA2 (N598 to R890 residues) expressed in baculovirus using poly-EY as substrate after 180 mins by luciferase coupled chemiluminescence assay.
Chain of Ephrin type-A receptor 2 (P29317 whole entry, the tested form may be a part): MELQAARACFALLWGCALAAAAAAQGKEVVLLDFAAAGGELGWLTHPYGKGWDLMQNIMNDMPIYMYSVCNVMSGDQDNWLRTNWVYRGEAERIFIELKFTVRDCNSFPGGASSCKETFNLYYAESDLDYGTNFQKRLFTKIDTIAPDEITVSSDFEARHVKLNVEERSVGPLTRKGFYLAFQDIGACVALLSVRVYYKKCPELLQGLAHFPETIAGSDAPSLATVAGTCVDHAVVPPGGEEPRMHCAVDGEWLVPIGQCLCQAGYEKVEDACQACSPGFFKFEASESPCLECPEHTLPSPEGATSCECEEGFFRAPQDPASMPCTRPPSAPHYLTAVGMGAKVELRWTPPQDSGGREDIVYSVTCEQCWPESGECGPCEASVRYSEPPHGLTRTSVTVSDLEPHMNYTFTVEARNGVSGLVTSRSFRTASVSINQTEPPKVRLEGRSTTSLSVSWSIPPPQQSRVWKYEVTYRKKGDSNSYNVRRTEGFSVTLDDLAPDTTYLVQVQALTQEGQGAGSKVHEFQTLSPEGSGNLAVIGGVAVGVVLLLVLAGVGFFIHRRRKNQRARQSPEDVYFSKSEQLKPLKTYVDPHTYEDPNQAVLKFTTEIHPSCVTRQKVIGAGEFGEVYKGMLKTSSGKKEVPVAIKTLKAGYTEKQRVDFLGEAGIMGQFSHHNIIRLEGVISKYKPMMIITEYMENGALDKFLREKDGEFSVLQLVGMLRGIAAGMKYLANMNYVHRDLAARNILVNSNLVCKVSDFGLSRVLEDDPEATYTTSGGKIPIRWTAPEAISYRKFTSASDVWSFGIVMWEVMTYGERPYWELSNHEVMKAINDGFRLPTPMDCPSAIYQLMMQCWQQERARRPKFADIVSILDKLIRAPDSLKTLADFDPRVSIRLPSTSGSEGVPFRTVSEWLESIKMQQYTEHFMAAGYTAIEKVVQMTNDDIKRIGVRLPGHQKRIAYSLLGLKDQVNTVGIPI
Experiment [1] concerns the target Vascular endothelial growth factor receptor 2 (Homo sapiens, UniProt P35968). Description: Inhibition of recombinant human N-terminal GST-fused KDR (D807 to V1356 residues) expressed in baculovirus infected […] insect Sf9 cells using poly-EY as substrate after 240 mins by luciferase coupled chemiluminescence assay.

Chain of Vascular endothelial growth factor receptor 2 (P35968 whole entry, the tested form may be a part): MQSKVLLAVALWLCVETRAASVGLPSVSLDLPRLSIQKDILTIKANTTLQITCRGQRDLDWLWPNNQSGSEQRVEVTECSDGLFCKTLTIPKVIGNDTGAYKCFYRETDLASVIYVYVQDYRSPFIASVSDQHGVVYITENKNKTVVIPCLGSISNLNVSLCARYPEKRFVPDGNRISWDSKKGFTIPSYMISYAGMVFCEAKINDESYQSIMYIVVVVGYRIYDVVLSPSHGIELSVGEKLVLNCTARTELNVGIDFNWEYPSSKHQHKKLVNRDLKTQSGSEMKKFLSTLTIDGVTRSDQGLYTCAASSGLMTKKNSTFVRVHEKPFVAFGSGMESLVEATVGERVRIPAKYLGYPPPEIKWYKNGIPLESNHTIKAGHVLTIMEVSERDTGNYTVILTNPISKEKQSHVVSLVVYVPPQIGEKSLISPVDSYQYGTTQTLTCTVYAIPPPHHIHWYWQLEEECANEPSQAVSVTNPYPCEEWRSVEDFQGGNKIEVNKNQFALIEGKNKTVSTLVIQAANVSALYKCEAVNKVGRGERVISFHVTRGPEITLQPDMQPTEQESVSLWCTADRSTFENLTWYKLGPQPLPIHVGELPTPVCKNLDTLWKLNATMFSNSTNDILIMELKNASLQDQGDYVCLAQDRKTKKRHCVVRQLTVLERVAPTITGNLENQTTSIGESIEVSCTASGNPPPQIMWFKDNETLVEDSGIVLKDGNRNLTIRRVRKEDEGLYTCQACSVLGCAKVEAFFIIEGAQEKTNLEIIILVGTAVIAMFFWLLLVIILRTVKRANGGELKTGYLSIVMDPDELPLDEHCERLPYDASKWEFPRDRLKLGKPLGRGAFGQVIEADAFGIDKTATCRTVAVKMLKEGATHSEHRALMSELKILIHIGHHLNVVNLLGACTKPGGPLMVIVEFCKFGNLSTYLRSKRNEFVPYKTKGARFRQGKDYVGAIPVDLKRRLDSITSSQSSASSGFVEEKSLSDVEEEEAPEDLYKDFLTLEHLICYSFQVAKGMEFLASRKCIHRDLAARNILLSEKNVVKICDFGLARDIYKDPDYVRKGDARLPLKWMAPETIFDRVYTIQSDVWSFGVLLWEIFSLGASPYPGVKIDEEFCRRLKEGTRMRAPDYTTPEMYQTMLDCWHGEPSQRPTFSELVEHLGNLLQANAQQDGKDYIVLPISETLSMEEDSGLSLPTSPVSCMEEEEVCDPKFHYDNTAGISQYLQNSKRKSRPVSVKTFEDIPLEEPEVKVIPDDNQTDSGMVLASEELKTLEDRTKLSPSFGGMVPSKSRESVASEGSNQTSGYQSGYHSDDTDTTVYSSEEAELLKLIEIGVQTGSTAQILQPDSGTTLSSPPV

`COc1cc2c(Nc3ccc(Cl)c(Cl)c3)ncnc2cc1OCc1csc(CN2CCN(C)CC2)n1`: the IC50 (commonly the concentration needed to halve the response being measured) at Ephrin type-B receptor 4 is < 0.05 µM.
With `COc1cc2c(Nc3ccc(Cl)c(Cl)c3)ncnc2cc1OCC1CN(CC2CCCCC2)CCO1` (stereo not drawn), the IC50 (at Ephrin type-A receptor 2; in experiment [1]; on Ephrin type-B receptor 4) was 0.05 to 1 µM in each case.
Take `CCCCCCN1CCOC(COc2cc3ncnc(Nc4ccc(Cl)c(Cl)c4)c3cc2OC)C1` (stereo not drawn): the IC50 (on Ephrin type-A receptor 2; in experiment [1]; at Ephrin type-B receptor 4) was 0.05 to 1 µM throughout.
Turning to `COc1cc2c(Nc3ccc(Cl)c(Cl)c3)ncnc2cc1OCC1CN(CCCC#N)CCO1` (stereo not drawn), the IC50 (at Ephrin type-A receptor 2; in experiment [1]; at Ephrin type-B receptor 4) was < 0.05 µM throughout.
On to `COc1cc2c(Nc3ccc(Cl)c(Cl)c3)ncnc2cc1OCc1csc(CN2CCCC2)n1`, for which the IC50 (on Ephrin type-A receptor 2; in experiment [1]; at Ephrin type-B receptor 4) was 0.05 to 1 µM in each case.
Turning to `COc1cc2c(Nc3ccc(Cl)c(Cl)c3)ncnc2cc1OCC1CN(C(=O)c2c(F)ccc(F)c2F)CCO1` (stereo not drawn), the IC50 (on Ephrin type-A receptor 2; in experiment [1]; at Ephrin type-B receptor 4) was 0.05 to 1 µM each time.
Regarding `COc1cc2c(Nc3ccc(Cl)c(Cl)c3)ncnc2cc1OCC1CN(C2CCOCC2)CCO1` (stereo not drawn), the IC50 at Ephrin type-A receptor 2 is 0.05 to 1 µM; in experiment [1], 0.05 to 1 µM; on Ephrin type-B receptor 4 it was < 0.05 µM.
Turning to `COc1cc2c(Nc3ccc(Cl)c(Cl)c3)ncnc2cc1OCc1csc(CN(C)C)n1`, at Ephrin type-B receptor 4, the IC50 lay within 0.05 to 1 µM.
For `CCCCCCCCN1CCOC(COc2cc3ncnc(Nc4ccc(Cl)c(Cl)c4)c3cc2OC)C1` (stereo not drawn), the results for the IC50 (at Ephrin type-A receptor 2; in experiment [1]; at Ephrin type-B receptor 4) were 1 to 20 µM, 1 to 20 µM and 0.05 to 1 µM, respectively.
In the case of `CCCCCN1CCOC(COc2cc3ncnc(Nc4ccc(Cl)c(Cl)c4)c3cc2OC)C1` (stereo not drawn), the IC50 (on Ephrin type-A receptor 2; in experiment [1]; on Ephrin type-B receptor 4) was 0.05 to 1 µM throughout.
With `C=CCCCCCCN1CCOC(COc2cc3ncnc(Nc4ccc(Cl)c(Cl)c4)c3cc2OC)C1` (stereo not drawn), the IC50 (on Ephrin type-A receptor 2; in experiment [1]; on Ephrin type-B receptor 4) was 0.05 to 1 µM each time.
For `COC(=O)CCCCN1CCOC(COc2cc3ncnc(Nc4ccc(Cl)c(Cl)c4)c3cc2OC)C1` (stereo not drawn), the IC50 (at Ephrin type-A receptor 2; in experiment [1]; on Ephrin type-B receptor 4) was 0.05 to 1 µM throughout.
Turning to `COc1cc2c(Nc3ccc(Cl)c(Br)c3)ncnc2cc1OCC1CN(C)CCO1` (stereo not drawn), the figures for the IC50 (at Ephrin type-A receptor 2; in experiment [1]; at Ephrin type-B receptor 4) were 0.05 to 1 µM, 0.05 to 1 µM and < 0.05 µM, respectively.
`CCCCc1ccc(C(=O)N2CCOC(COc3cc4ncnc(Nc5ccc(Cl)c(Cl)c5)c4cc3OC)C2)cc1` (stereo not drawn): the IC50 (on Ephrin type-A receptor 2; in experiment [1]; at Ephrin type-B receptor 4) was 1 to 20 µM in each case.
For the compound `COCCNC(=NC#N)N1CCOC(COc2cc3ncnc(Nc4ccc(Cl)c(Cl)c4)c3cc2OC)C1` (stereo not drawn), the IC50 was 0.05 to 1 µM at Ephrin type-A receptor 2, 0.05 to 1 µM in experiment [1] and < 0.05 µM at Ephrin type-B receptor 4.
Take `COc1cc2c(Nc3ccc(Cl)c(Cl)c3)ncnc2cc1OCc1cc(F)cc2c1OCOC2`: the IC50 (on Ephrin type-A receptor 2; in experiment [1]; on Ephrin type-B receptor 4) was 1 to 20 µM in each case.
`CCC#CCN1CCOC(COc2cc3ncnc(Nc4ccc(Cl)c(Cl)c4)c3cc2OC)C1` (stereo not drawn): the IC50 (on Ephrin type-A receptor 2; in experiment [1]; at Ephrin type-B receptor 4) was 0.05 to 1 µM in each case.
In the case of `COc1cc2c(Nc3ccc(Cl)c(Cl)c3)ncnc2cc1OCC1CN(C2CCN(C)CC2)CCO1` (stereo not drawn), the figures for the IC50 (on Ephrin type-A receptor 2; in experiment [1]; at Ephrin type-B receptor 4) were 0.05 to 1 µM, < 0.05 µM and < 0.05 µM, respectively.
With `COc1cc2c(Nc3ccc(Cl)c(Cl)c3)ncnc2cc1OCC1CN(CCc2ccccc2)CCO1` (stereo not drawn), the IC50 at Ephrin type-A receptor 2 lay in the range of 1 to 20 µM; in experiment [1] it was 0.05 to 1 µM; on Ephrin type-B receptor 4 it was 0.05 to 1 µM.
In the case of `COc1cc2c(Nc3ccc(Cl)c(Cl)c3)ncnc2cc1OCc1csc(CN2CCOCC2)n1`, the IC50 on Ephrin type-B receptor 4 lay within 0.05 to 1 µM.
For `COc1cc2c(Nc3ccc(Cl)c(Cl)c3)ncnc2cc1OCC1CN(CC2CC2)CCO1` (stereo not drawn), the IC50 (on Ephrin type-A receptor 2; in experiment [1]; at Ephrin type-B receptor 4) was < 0.05 µM in each case.
Regarding `COc1cc2c(Nc3ccc(Cl)c(Cl)c3)ncnc2cc1OCC1CN(C(=O)c2ccoc2)CCO1` (stereo not drawn), the IC50 on Ephrin type-A receptor 2 is 0.05 to 1 µM; in experiment [1], 0.05 to 1 µM; at Ephrin type-B receptor 4 it was < 0.05 µM.
As to `COc1cc2c(Nc3ccc(Cl)c(Cl)c3)ncnc2cc1OCC1CN(CCC(C)C)CCCO1` (stereo not drawn), the IC50 (at Ephrin type-A receptor 2; in experiment [1]; on Ephrin type-B receptor 4) was 0.05 to 1 µM each time.
For the compound `COc1cc2c(Nc3ccc(Cl)c(Cl)c3)ncnc2cc1OCC1CN(C(C)=O)CCO1` (stereo not drawn), the values for the IC50 (on Ephrin type-A receptor 2; in experiment [1]; on Ephrin type-B receptor 4) were 0.05 to 1 µM, 0.05 to 1 µM and < 0.05 µM, respectively.
With `CCC(CC)CN1CCOC(COc2cc3ncnc(Nc4ccc(Cl)c(Cl)c4)c3cc2OC)C1` (stereo not drawn), the IC50 (on Ephrin type-A receptor 2; in experiment [1]; at Ephrin type-B receptor 4) was 0.05 to 1 µM throughout.
As for `C#CCN1CCOC(COc2cc3ncnc(Nc4ccc(Cl)c(Cl)c4)c3cc2OC)C1` (stereo not drawn), the IC50 (on Ephrin type-A receptor 2; in experiment [1]; at Ephrin type-B receptor 4) was < 0.05 µM throughout.
Consider `COc1cc2c(Nc3ccc(Cl)c(Cl)c3)ncnc2cc1OCC1CN(C(=O)CCC(C)C)CCO1` (stereo not drawn), for which the IC50 (at Ephrin type-A receptor 2; in experiment [1]; on Ephrin type-B receptor 4) was 0.05 to 1 µM each time.
Take `COc1cc2c(Nc3ccc(Cl)c(Cl)c3)ncnc2cc1OCC1CN(CCCCCCO)CCO1` (stereo not drawn): the figures for the IC50 (on Ephrin type-A receptor 2; in experiment [1]; at Ephrin type-B receptor 4) were 0.05 to 1 µM, < 0.05 µM and < 0.05 µM, respectively.
Turning to `C=CCN1CCOC(COc2cc3ncnc(Nc4ccc(Cl)c(Cl)c4)c3cc2OC)C1` (stereo not drawn), the IC50 (on Ephrin type-A receptor 2; in experiment [1]; at Ephrin type-B receptor 4) was 0.05 to 1 µM in each case.
For the compound `COc1cc2c(Nc3ccc(Cl)c(Cl)c3)ncnc2cc1OCC1CN(C(=O)c2ccc3c(c2)OCO3)CCO1` (stereo not drawn), the IC50 (on Ephrin type-A receptor 2; in experiment [1]; at Ephrin type-B receptor 4) was 0.05 to 1 µM in each case.
As to `CC[C@@H](C)CN1CCOC(COc2cc3ncnc(Nc4ccc(Cl)c(Cl)c4)c3cc2OC)C1` (stereo partly drawn), the IC50 (at Ephrin type-A receptor 2; in experiment [1]; on Ephrin type-B receptor 4) was 0.05 to 1 µM in each case.
As for `COc1cc2c(Nc3ccc(Cl)c(Cl)c3)ncnc2cc1OCC1CN(C(=O)Cc2ccc(Cl)cc2)CCO1` (stereo not drawn), the IC50 on Ephrin type-A receptor 2 was 1 to 20 µM; in experiment [1], 0.05 to 1 µM; on Ephrin type-B receptor 4, 0.05 to 1 µM.
As for `CCC(=O)CN1CCOC(COc2cc3ncnc(Nc4ccc(Cl)c(Cl)c4)c3cc2OC)C1` (stereo not drawn), the IC50 (on Ephrin type-A receptor 2; in experiment [1]; at Ephrin type-B receptor 4) was 0.05 to 1 µM each time.
On to `COCCOc1cc2c(Nc3ccc(Cl)c(Cl)c3)ncnc2cc1OCC1CNCCO1` (stereo not drawn), for which the IC50 (in experiment [1]; at Ephrin type-B receptor 4) was < 0.05 µM in each case.
As for `COc1cc2c(Nc3ccc(Cl)c(Cl)c3)ncnc2cc1OCC1CN(CC2CCCCO2)CCO1` (stereo not drawn), the IC50 (in experiment [1]; on Ephrin type-B receptor 4) was < 0.05 µM throughout.
For the compound `COc1cc2c(Nc3ccc(Cl)c(Cl)c3)ncnc2cc1OC[C@@H]1O[C@@H](OC)[C@@H](O)[C@H](O)[C@H]1O` (single isomer, unassigned), the IC50 at Ephrin type-A receptor 2 is 0.05 to 1 µM; on Ephrin type-B receptor 4 it was < 0.05 µM.
Regarding `COc1ccc(-c2nc(COc3cc4ncnc(Nc5ccc(Cl)c(Cl)c5)c4cc3OC)no2)cc1`, the IC50 on Ephrin type-A receptor 2 was 1 to 20 µM.
As for `COc1cc2c(Nc3ccc(N4CCN(C)CC4)c(F)c3)ncnc2cc1O[C@H]1CO[C@H]2[C@@H]1OC[C@@H]2F`, the IC50 (in experiment [1]; at Ephrin type-B receptor 4) was 1 to 20 µM each time.
Regarding `COc1cc2c(Nc3ccc(Cl)c(Cl)c3)ncnc2cc1OCC1CCCCO1` (stereo not drawn), on Ephrin type-B receptor 4, the IC50 was < 0.05 µM.
